Source: patent US9375004B2 (Bayer Intellectual Property GmbH, priority 2010, dated 2016)

How the values were obtained:
[1] = logP by HPLC on reversed-phase column (EEC Directive 79/831 Annex V.A8); settings: EEC Directive 79/831 Annex V.A8
[2] = system: Fusarium nivale (var. majus); experiment: Fusarium nivale (var. majus)-test (wheat)/preventive; settings: for Efficacy: preventive, evaluated 5 days after inoculation; for protection: dose of 250 ppm and 500 ppm of active ingredient
Procedure: Fusarium Nivale (Var. Majus)-Test (Wheat)/Preventive
Solvent: 49 parts by weight of N,N-dimethylacetamide
Emulsifier: 1 part by weight of alkylaryl polyglycol ether
After the spray coating has been dried, the plants are slightly injured by using a sandblast and afterwards they are sprayed with a conidia suspension of Fusarium nivale (var. majus).
The plants are placed in the greenhouse under a translucent incubation cabinet at a temperature of approximately 10° C. and a relative atmospheric humidity of approximately 100%.
The test is evaluated 5 days after the inoculation.

Puccinia triticina = experiment: Puccinia triticina-test (wheat)/preventive; assay type: in vivo; settings: 500 ppm, preventive, evaluated 8 days after inoculation
[3] = HPLC on reversed-phase column (C 18)
[4] = HPLC on a reversed-phase column (C 18)

SMILES | logP [1, 3] | also measured
CC(C)Oc1cccc(NC(=O)c2c(C(F)F)nn(C)c2F)c1 [Example 170] | 2.88 | Efficacy ([2]; 500 ppm): 86%; Efficacy (Puccinia triticina): 100%
Cn1nc(C(F)F)c(C(=O)Nc2ccc3c(c2)CCC3)c1Cl [Example 193] | 3.17 | Efficacy ([2]; 500 ppm): 75%; Efficacy (Puccinia triticina): 100%
Cn1nc(C(F)F)c(C(=S)Nc2ccccc2CC[Si](C)(C)C)c1Cl [Example 25] | 4.56 | Efficacy ([2]; 500 ppm): 88%; Efficacy (Puccinia triticina): 100%
Cn1cc(C(=O)Nc2ccccc2C2CC2C2CC2)c(C(F)F)n1 (stereo not drawn) [2.34 from WO-2003/074491, N-{2-[1,1′-bi(cyclopropyl)-2-yl]phenyl}-3-(difluoromethyl)-1-methyl-1H-pyrazole-4-carboxamide, reference compound] |  | Efficacy ([2]; 500 ppm): 57%; Efficacy ([2]; 500 ppm, listed as 2.34): less than 60%
Cn1nc(C(F)F)c(C(=O)Nc2ccc(-c3cc(Cl)cc(Cl)c3)cc2)c1F [compound 266] |  | logP [1, 4]: 4.51
C/C(=N\OC(C)(C)C)c1ccc(-c2cccc(NC(=O)c3c(C(F)F)nn(C)c3F)c2)cc1 [compound 247] |  | logP [1, 4]: 5.28
Cn1nc(C(F)F)c(C(=O)Nc2ccccc2-c2cccc(OC(F)(F)F)c2)c1F [compound 142] | 3.83 | 
CC(C)C1C2CCC1c1c(NC(=O)c3cn(C)nc3C(F)F)cccc12 (stereo not drawn) [15.202 (syn/anti 9/1) from WO-2004/035589] [3-(difluoromethyl)-N-(9-isopropyl-1,2,3,4-tetrahydro-1,4-methanonaphthalen-5-yl)-1-methyl-1H-pyrazole-4-carboxamide, reference compound] |  | Efficacy ([2]; 250 ppm): 50%; Efficacy ([2]; 500 ppm): 50%
Cn1nc(C(F)F)c(C(=O)Nc2cccc(-c3ccc(F)c(Cl)c3)c2)c1Cl [compound 218] | 4.11 | 
Cn1nc(C(F)F)c(C(=O)Nc2ccc(OC(F)(F)F)cc2Br)c1F [compound 260] |  | logP [1, 4]: 3.76
Cc1nn(C)c(F)c1C(=O)Nc1ccccc1C(C)CC(C)C (stereo not drawn) [I-21 from WO-2003/010149, 5-fluoro-1,3-dimethyl-N-[2-(4-methylpentan-2-yl)phenyl]-1H-pyrazole-4-carboxamide, reference compound] |  | Efficacy ([2]; 250 ppm): 20%; Efficacy ([2]; 500 ppm): 40%; protection [2]: less than 40%
Cn1nc(C(F)F)c(C(=O)Nc2ccccc2-c2ccc(Cl)cc2Cl)c1Cl [compound 124] | 4.24 | 
CC(C)Oc1ccc(-c2ccccc2NC(=O)c2c(C(F)F)nn(C)c2F)cc1 [compound 113] | 4.01 | 
Cn1nc(C(F)F)c(C(=O)Nc2ccc3c(c2)OC(F)(F)O3)c1F [compound 197] | 2.94 | 
Cn1nc(C(F)F)c(C(=O)Nc2cccc(OCC(C)(C)C)c2)c1Cl [compound 183] | 4.19 | 
CC(C)O/N=C/c1ccc(-c2ccccc2NC(=O)c2c(C(F)F)nn(C)c2Cl)cc1 [compound 147] | 4.63 | 
Cn1nc(C(F)F)c(C(=O)Nc2cccc(-c3ccc(F)cc3)c2)c1Cl [compound 204] | 3.59 | 
CC(C)C1C2CCC1c1c(NC(=O)c3cn(C)nc3C(F)F)cccc12 (stereo not drawn) [Example 15.202, 3-(difluoromethyl)-N-(9-isopropyl-1,2,3,4-tetrahydro-1,4-methanonaphthalen-5-yl)-1-methyl-1H-pyrazole-4-carboxamide, reference compound] |  | protection [2]: average (less than 50%) protection to good (at least 70%) protection
Cn1nc(C(F)F)c(C(=O)Nc2cccc(-c3ccc(C(F)(F)F)cc3)c2)c1F [compound 225] | 3.99 | 
Cn1nc(C(F)F)c(C(=O)Nc2cccc(-c3cccc([Si](C)(C)C)c3)c2)c1Cl [compound 238] | 5.17 | 
CC(C)C1C2CCC1c1c(NC(=O)c3cn(C)nc3C(F)F)cccc12 (stereo not drawn) [15.202 (syn/anti 3/7) from WO-2004/035589] [3-(difluoromethyl)-N-(9-isopropyl-1,2,3,4-tetrahydro-1,4-methanonaphthalen-5-yl)-1-methyl-1H-pyrazole-4-carboxamide, reference compound] |  | Efficacy ([2]; 250 ppm): 50%; Efficacy ([2]; 500 ppm): 83%
Cn1nc(C(F)F)c(C(=O)Nc2ccccc2SCC(F)(F)F)c1F [compound 37] | 3.29 | 

SMILES | logP [1, 3] | also measured
Cn1nc(C(F)F)c(C(=O)Nc2cccc(Sc3ccc(C(C)(C)C)cc3)c2)c1F [compound 258] |  | logP [1, 4]: 4.98
Cn1nc(C(F)F)c(C(=O)Nc2cc3c(cc2Br)OC(F)(F)O3)c1F [compound 196] | 3.58 | 
Cn1nc(C(F)F)c(C(=O)Nc2cccc(Sc3ccccc3)c2)c1F [compound 257] |  | logP [1, 4]: 3.65
Cn1nc(C(F)F)c(C(=O)Nc2cccc(-c3ccc(Cl)cc3Cl)c2)c1Cl [compound 230] | 4.39 | 
Cc1cc(C)cc(-c2cccc(NC(=O)c3c(C(F)F)nn(C)c3F)c2)c1 [compound 205] | 4.11 | 
CO/N=C(\C)c1ccc(-c2cccc(NC(=O)c3c(C(F)F)nn(C)c3F)c2)cc1 [compound 233] | 3.89 | 
Cn1nc(C(F)F)c(C(=O)Nc2cc(Cl)ccc2SCC(F)(F)F)c1F [compound 40] | 3.92 | 
Cc1cc(C)cc(-c2cccc(NC(=O)c3c(C(F)F)nn(C)c3Cl)c2)c1 [compound 206] | 4.34 | 
CC(C)O/N=C/c1ccc(-c2cccc(NC(=O)c3c(C(F)F)nn(C)c3Cl)c2)cc1 [compound 246] |  | logP [1, 4]: 4.66
Cn1nc(C(F)F)c(C(=O)Nc2ccc(-c3ccccc3)cc2)c1Cl [compound 265] |  | logP [1, 4]: 3.50
Cn1nc(C(F)F)c(C(=O)Nc2ccccc2-c2ccc(Cl)cc2Cl)c1F [compound 123] | 3.89 | 
CC(C)c1cccc(-c2ccccc2NC(=O)c2c(C(F)F)nn(C)c2Cl)c1 [compound 95] | 4.76 | 
Cn1nc(C(F)F)c(C(=O)Nc2cccc(-c3cc(F)cc(F)c3)c2)c1Cl [compound 210] | 3.83 | 
CCOCCOc1cc(NC(=O)c2c(C(F)F)nn(C)c2F)ccc1C [compound 185] | 2.96 | 
COCCOc1cccc(NC(=O)c2c(C(F)F)nn(C)c2F)c1 [compound 180] | 2.15 | 
Cn1nc(C(F)F)c(C(=O)Nc2cccc(OCc3ccccc3)c2)c1F [compound 252] |  | logP [1, 4]: 3.35
Cc1cc(C)c(-c2cccc(NC(=O)c3c(C(F)F)nn(C)c3F)c2)c(C)c1 [compound 211] | 4.34 | 
Cn1nc(C(F)F)c(C(=O)Nc2ccc(C3CCCCC3)cc2)c1F [compound 262] |  | logP [1, 4]: 4.21
Cn1nc(C(F)F)c(C(=O)Nc2ccccc2OCC(C)(C)C)c1F [compound 27] | 4.08 | 
Cn1nc(C(F)F)c(C(=O)Nc2ccc(Cl)cc2)c1F [compound 261] |  | logP [1, 4]: 2.70
CC(C)COc1ccc(-c2ccccc2NC(=O)c2c(C(F)F)nn(C)c2F)cc1 [compound 131] | 4.61 | 
Cc1ccccc1-c1cccc(NC(=O)c2c(C(F)F)nn(C)c2Cl)c1 [compound 202] | 3.83 | 

SMILES | logP [1, 3] | also measured
CC(C)Oc1cc(NC(=O)c2c(C(F)F)nn(C)c2Cl)c(Cl)cc1Cl [compound 173] | 4.68 | 
C/C(=N\OC(C)(C)C)c1ccc(-c2cccc(NC(=O)c3c(C(F)F)nn(C)c3Cl)c2)cc1 [compound 248] |  | logP [1, 4]: 5.51
Cn1nc(C(F)F)c(C(=O)Nc2cccc(-c3cccc(Cl)c3Cl)c2)c1F [compound 227] | 3.99 | 
Cn1nc(C(F)F)c(C(=O)Nc2cccc(-c3ccc(F)cc3)c2)c1F [compound 203] | 3.39 | 
Cn1nc(C(F)F)c(C(=O)Nc2ccccc2SC(F)(F)F)c1F [compound 36] | 3.37 | 
CC(C)c1cccc(-c2cccc(NC(=O)c3c(C(F)F)nn(C)c3F)c2)c1 [compound 214] | 4.41 | 
CC(C)Oc1cccc(NC(=S)c2c(C(F)F)nn(C)c2Cl)c1 [Example 171] | 3.41 | 
Cn1nc(C(F)F)c(C(=O)Nc2ccc3c(c2)OC(F)(F)C(F)(F)O3)c1Cl [compound 200] | 3.76 | 
Cn1nc(C(F)F)c(C(=O)Nc2cccc(C#Cc3ccccc3)c2)c1F [compound 249] |  | logP [1, 4]: 3.83
Cn1nc(C(F)F)c(C(=O)Nc2ccccc2SCC2CC2(Cl)Cl)c1F (stereo not drawn) [compound 41] | 3.27 | 
C#CCOc1ccccc1NC(=O)c1c(C(F)F)nn(C)c1F [compound 26] | 2.71 | 
Cn1nc(C(F)F)c(C(=O)Nc2cccc(-c3ccc(C(C)(C)C)cc3)c2)c1Cl [compound 220] | 4.93 | 
CC(C)=CCc1ccccc1NC(=O)c1c(C(F)F)nn(C)c1Cl [compound 5] | 3.35 | 
Cn1nc(C(F)F)c(C(=O)Nc2cccc(-c3cc(Cl)cc(Cl)c3)c2)c1Cl [compound 232] | 4.73 | 
CC(C)O/N=C/c1ccc(-c2ccccc2NC(=O)c2c(C(F)F)nn(C)c2F)cc1 [compound 146] | 4.31 | 
Cn1nc(C(F)F)c(C(=O)Nc2ccc3c(c2)OC(F)(F)C(F)(F)O3)c1F [compound 199] | 3.58 | 
Cn1nc(C(F)F)c(C(=O)Nc2cccc(OCC(F)(F)F)c2)c1F [compound 186] | 2.88 | 
Cn1cc(C(=O)Nc2cccc3c2C2CCC3C2=C(Cl)Cl)c(C(F)F)n1 (stereo not drawn) [A1.1 from WO-2008/131901, N-[9-(dichloromethylene)-1,2,3,4-tetrahydro-1,4-methanonaphthalen-5-yl]-3-(difluoromethyl)-1-methyl-1H-pyrazole-4-carboxamide, reference compound] |  | Efficacy ([2]; 250 ppm): 75%; Efficacy ([2]; 500 ppm): 88%; protection [2]: at least 70%
Cc1ccccc1-c1ccccc1NC(=O)c1c(C(F)F)nn(C)c1Cl [compound 76] | 4.14 | 
C/C(=N\OC(C)(C)C)c1ccc(-c2ccccc2NC(=O)c2c(C(F)F)nn(C)c2F)cc1 [compound 156] | 5.17 | 
Cn1nc(C(F)F)c(C(=O)Nc2cccc3c2CCCC3)c1Cl [compound 57] | 3.31 | 
